Assay results from patent US20070161648A1, “Substituted dihydro-isoindolones useful in treating kinase disorders” (priority 2005, published 2007).

Legend:
HCT-116 colon carcinoma = test: Cell proliferation inhibition assay (14C-thymidine incorporation), HCT116; format: cell-based; settings: Homo sapiens
Text: (§1) The ability of a test compound to inhibit unregulated cell proliferation may be determined by measuring incorporation of ^14C-labelled thymidine into newly synthesized DNA within cell lines derived from carcinomas originating from several tissues. Accordingly, the effect of a test compound on proliferation of cells with a variety of phenotypes may be determined.
(§2) Carcinoma cell lines used include the HeLa cervical adenocarcinoma from the American Type Culture Collection (ATCC Cat. #CCL2), A375 malignant melanoma (ATCC Cat. #CRL-1619) and HCT-116 colon carcinoma (ATCC Cat. #CCL-247).
(§3) The carcinoma cells are trypsinized and counted. The cells (3000-8000 count) are added to each well of a 96-well CytoStar tissue culture treated scintillating microplate (Amersham #RPNQO160) in complete medium (100 μL) and the plate is then incubated in complete medium for 24 hrs at 37° C. in an inert atmosphere containing 5% CO2.
(§4) Test compound (1 μL) in 100% DMSO is added to the plate test-wells with DMSO only added to control-wells. The plate is incubated in complete medium for a second 24 hr period at 37° C. in an atmosphere containing 5% CO2.
(§5) An aliquot of a solution of Methyl ^14C-thymidine (56 mC/mmol) (NEN #NEC568 or Amersham #CFA532) and complete medium (20 uL to provide 0.2 μCi/well) is then added to each well and the plate is incubated for a third 24 hr period at 37° C. in an atmosphere containing 5% CO2.
(§6) The plate contents are then discarded, the plate is washed twice with PBS (200 μL) and then PBS (200 μL) is added to each well. The plate is sealed and the degree of methyl ^14C-thymidine incorporation is quantified on a Packard Top Count.
(§7) For a series of test concentrations, the IC50 was derived by graphing percent inhibition against the log of the concentrations tested for a given compound with results shown in Table 2.

Aurora-A = target: T1, Aurora-A (Mus musculus, UniProt P97477); test: Aurora-A screening assay (33P-ATP FlashPlate kinase assay); format: biochemical, murine; settings: for inhibition at 100 µM: single test concentration 100 μM, read-out: Aurora-A percent inhibition
T1 construct: followed by the full length protein encoding the murine Aurora-A; polyhistidine (N); made in house; host or cells: Sf9 insect cells
T1 sequence (P97477 1-395): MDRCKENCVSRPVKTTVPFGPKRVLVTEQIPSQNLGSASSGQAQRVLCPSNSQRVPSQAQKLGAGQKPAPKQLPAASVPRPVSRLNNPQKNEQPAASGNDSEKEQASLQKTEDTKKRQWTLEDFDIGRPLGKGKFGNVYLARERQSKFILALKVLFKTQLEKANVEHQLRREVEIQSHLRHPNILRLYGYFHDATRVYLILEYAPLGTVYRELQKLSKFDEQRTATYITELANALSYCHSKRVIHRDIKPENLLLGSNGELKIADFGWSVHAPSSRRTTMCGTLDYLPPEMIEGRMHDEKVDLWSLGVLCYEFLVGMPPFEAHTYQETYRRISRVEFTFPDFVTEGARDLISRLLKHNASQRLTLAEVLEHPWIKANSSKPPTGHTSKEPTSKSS
Procedure: (§8) 70 μL of the kinase reaction mixture was dispensed into the well of a streptavidin coated FlashPlate™ (Cat. # SMP103, NEN, Boston, Mass.).
(§9) Test compound stock in 100% DMSO (1 μL) was added to the wells resulting in a final concentration of 1% DMSO in the reaction with a 100 μL final reaction volume. Each enzyme was diluted in 50 mM Tris-HCl pH=8.0, 0.1% BSA and 30 μL was added to each well to initiate the reaction. The reaction was incubated for one hour at 30° C. At the end of the 1 hr incubation, the reaction was terminated by aspirating the mixture from the plate and washing the wells twice with PBS containing 100 mM EDTA. The biotinylated peptide substrate became immobilized on the Flashplate™ and the incorporation of ^33P-γ-ATP was measured by reading the plate on a scintillation counter. Inhibition of the enzymatic activity was measured by observing a reduced amount of ^33P-γ-ATP incorporated into the immobilized peptide.
Aurora-A is a fusion protein containing a polyhistidine tag at the N terminus followed by the full length protein encoding the murine Aurora-A (Accession number GB BC014711) expressed and purified from sf9 insect cells. The assay used 400 ng of the N-terminal biotinylated peptide biotin-[…]-amide (Aurora-A) per well.
(§10) A maximum and minimum signal for the assay was determined on each plate. The percent inhibition of a test compound was calculated according to the formula: [formula]

VEGF-R2 kinase domain = target: T2, VEGF-R2 kinase domain (Rattus norvegicus, UniProt O08775); test: VEGF-R2 screening assay (33P-ATP FlashPlate kinase assay); format: biochemical; settings: single test concentration 100 μM; read-out: VEGF-R2 percent inhibition
T2 construct: polyhistidine (N)
Procedure: as §8, §9
The assay used 150 ng of the N-terminal biotinylated peptide biotin-[…]-amide (VEGF-R2) per well.
as §10

[1] = test system: HeLa cervical adenocarcinoma; test: Cell proliferation inhibition assay (14C-thymidine incorporation), HeLa; format: cell-based; settings: Homo sapiens
Text: as §1, §2, §3, §4, §5, §6, §7

A375 malignant melanoma = test: Cell proliferation inhibition assay (14C-thymidine incorporation), A375; format: cell-based; settings: Homo sapiens, A-375
Text: as §1, §2, §3, §4, §5, §6, §7

T2 sequence (O08775 786-1343): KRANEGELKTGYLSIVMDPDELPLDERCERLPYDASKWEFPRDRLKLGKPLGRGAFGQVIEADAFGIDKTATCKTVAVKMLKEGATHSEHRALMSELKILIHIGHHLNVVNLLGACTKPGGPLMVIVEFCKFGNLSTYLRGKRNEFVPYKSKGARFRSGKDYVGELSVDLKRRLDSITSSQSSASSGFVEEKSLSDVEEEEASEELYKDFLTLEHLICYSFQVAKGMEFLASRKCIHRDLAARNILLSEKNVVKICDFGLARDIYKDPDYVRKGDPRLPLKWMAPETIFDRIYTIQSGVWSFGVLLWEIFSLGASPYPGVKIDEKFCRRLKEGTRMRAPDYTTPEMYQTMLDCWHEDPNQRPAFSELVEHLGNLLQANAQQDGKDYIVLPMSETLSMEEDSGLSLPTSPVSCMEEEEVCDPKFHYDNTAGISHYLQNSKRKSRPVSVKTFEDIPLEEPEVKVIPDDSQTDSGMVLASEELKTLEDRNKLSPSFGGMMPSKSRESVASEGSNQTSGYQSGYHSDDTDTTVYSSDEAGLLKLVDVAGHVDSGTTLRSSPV

Row | SMILES | IC50 (HCT-116 colon carcinoma) | IC50 (Aurora-A; 10 μM ATP) | inhibition at 100 µM (VEGF-R2 kinase domain) | IC50 [1] | IC50 (A375 malignant melanoma) | inhibition at 100 µM (Aurora-A)
1 | CC(C)(C)OC(=O)n1c(-c2cccc3c2C(=O)NC3)cc2cc(O)ccc21 [Cpd 28, 5-hydroxy-2-(3-oxo-2,3-dihydro-1H-isoindol-4-yl)-indole-1-carboxylic acid tert-butyl ester] | > 10 µM | 9.35 µM | 62% | 34.8 µM | 34.4 µM | –
2 | CC(C)(C)OC(=O)n1c(-c2cccc3c2C(=O)NC3)cc2cc(OCCN3CCCCC3)ccc21 [Cpd 29, 2-(3-oxo-2,3-dihydro-1H-isoindol-4-yl)-5-(2-piperidin-1-yl-ethoxy)-indole-1-carboxylic acid tert-butyl ester] | > 1 µM | – | 63% | 14.6 µM | 4.14 µM | 58%
3 | CC(C)(C)OC(=O)n1c(-c2cccc3c2C(=O)NC3)cc2cc(OCCN3CCOCC3)ccc21 [Cpd 30, 5-(2-morpholin-4-yl-ethoxy)-2-(3-oxo-2,3-dihydro-1H-isoindol-4-yl)-indole-1-carboxylic acid tert-butyl ester] | 17 µM | – | 65% | 20.3 µM | 5.31 µM | 57%
4 | COc1cc2c(c(-c3cc4cc(OC)ccc4n3C(=O)OC(C)(C)C)c1)C(=O)NC2 [Cpd 31, 5-Methoxy-2-(6-methoxy-3-oxo-2,3-dihydro-1H-isoindol-4-yl)-indole-1-carboxylic acid tert-butyl ester] | 39.5 µM | – | 17% | 44.3 µM | 39.6 µM | 40%
